Measurements published in patent publication US5204475A, “Substituted 3-aminosydnone imines and salts thereof” (Cassella Aktiengesellschaft, priority 1990, dated 1993).

Test system: spiral strips of the pulmonary artery of the guinea-pig
Assay: Relaxation of potassium-depolarised, CaCl2-contracted spiral strips of the pulmonary artery of the guinea-pig (modified method of Godfraind and Kaba and of Schuman et al.)
Conditions: depolarised with 40 mmol/1 potassium, contraction by 0.5 mmol/1 CaCl2; for IC50: Cavia porcellus, cumulative addition, average of 4 to 6 vessel strips, read-out: IC50 (concentration of the test substance which inhibits the contraction by 50%)
Experimental: The pharmacological action of the compounds of the formula I was determined by a modified method of Godfraind and Kaba (Arch. Int. Pharmacodyn. Ther. I96, (Suppl) 35 to 49, 1972) and of Schuman et al. (Naunyn-Schmiedeberg's Arch Pharmacol. 289, 409 to 418, 1975). In this connection, spiral strips of the pulmonary artery of the guinea-pig are depolarised with 40 mmol/1 of potassium after equilibration in calcium-free Tyrode solution. An addition of 0.5 mmol/1 of CaCl2 then induces a contraction. The relaxing action of the test substance is determined by cumulative addition in 1/2 log 10 stepped concentrations. From the concentration-effect curve (abscissa: -log mol/1 of test substance, ordinate: % inhibition of the maximum contraction, average value of 4 to 6 vessel strips), the concentration of the test substance is determined which inhibits the contraction by 50% (=IC50, mol/1). The duration of action of the test substance is given by the time which is needed after the addition of the test substance until the starting value is obtained again.

| IC50 [µM] | Compound | Duration of action in minutes (time needed after addition of the test substance until the starting value is obtained again) [min] |
| --- | --- | --- |
| 20 | Cl.N=c1c[n+](N2CCC[C@H]2C(=O)O)[n-]o1 [Example 3, (S)-3-(2-Carboxypyrrolidino)sydnone imine hydrochloride] | > 300 |
| 24 | Cl.N=c1c[n+](N2CCC(C(=O)O)CC2)[n-]o1 [Example 2, 3-(4-Carboxypiperidino)sydnone imine hydrochloride] | > 300 |
| 6 | Cl.N=c1c[n+](N2CCCCC2C(=O)O)[n-]o1 (stereo not drawn) [Example 1, 3-(2-Carboxypiperidino)sydnone imine hydrochloride] | > 300 |
